# According to patent US4771041A, “Method for combating virus infection” (priority 1976, dated 1988):
# Key:
# [1] = test system: visna virus; assay: Visna virus growth in sheep choroid plexus (SCP) cells: virus titre and morphological changes; format: cell-based; conditions: 500 μM
# Experimental: Visna virus is a retrovirus that can multiply in sheep choroid (SCP) cells. The infection can be followed by titrating medium from infected cells to determine the formation of virus particles and by observing morphological changes as syncytial formation and cell degeneration.
# Plates (5 cm) with primary SCP cells in medium 199 with 10% sheep serum were grown to confluence and then infected with 1×10^6 TCID50 (tissue culture infectious doses) of visna virus. One set of plates were left untreated, one set received different concentrations of phosphonoformic acid (PFA) at pH 7.2. Another set received phosphonoacetic acid (PAA) at pH 7.2. Uninfected plates were used as controls with and without PFA and PAA. The virus titre was determined 5 days after infection by the end-point titration method. The plates were checked daily in a light microscope to observe morphological changes.
# [2] = test system: reverse transcriptase from RMuLV; assay: Cell-free reverse transcriptase inhibition, RMuLV; format: biochemical, Rauscher murine leukemia virus; conditions: template/primer (rA)n.(dT)10
# Experimental: (§1) Reverse transcriptase from various retroviruses have been tested in cell-free assays for inhibition by phosphonoformic acid and phosphonoacetic acid. The assay conditions have been described by Collaborative Research, Inc, 1365 Main Street, Waltham, Mass., USA "Assay kit for mammalian viral reverse transcriptase". BLV and VV were prepared in this laboratory and all other viruses and viral enzyme were obtained from Dr. K Nilsson, Department of Pathology, University of Uppsala and from Boehringer Mannheim, Germany. Phosphonoformic acid (PFA) and phosphonoacetic acid (PAA) were added at pH 7.2 to the reaction mixtures at the start of the reaction.
# (§2) Rauscher murine leukemia virus; RMuLV, visna virus; VV, avian myeloblastosis virus; AMV, bovine leukemia virus; BLV, baboon endogenous virus; BaEV, simian sarcoma virus; SSV.
# [3] = guinea pig, in vivo
# Experimental: Phosphonoformic acid and phosphonoacetic acid were used as their trisodium and disodium salts, respectively. The test substances were used in 1% solutions.
# Guinea-pigs of the Dunkin-Hartley strain of both sexes and weighing 200-300 g were used. The back of the animal was shaved and depilated with Opilca® on the day before starting the application of the solutions. The back was divided into six squares in the middle of which 30 μl of the test solutions was applied. In a given group of animals the different solutions were applied in a randomized order alternating between sites. However, the same site was used for repeated application of a given solution.
# The irritation was scored on scales of 0 to 3, each grade corresponding to the following specific criteria of irritation:
# 1=slight erythema or edema or no hair growth
# 2=moderate erythema or edema or skin discoloration
# 3=marked erythema or edema or necrosis including crust formation.
# The scoring was carried out blindly using coded solutions.
# The scores of all the applications for a given solution and time were added and the average score was calculated.
# The solvent used was a mixture of glycerol 10.0% (w/v), Tween 80 0.1% and aq sterile ad 100. All solutions were adjusted to pH 6.5 with hydrochloric acid or aqueous sodium hydroxide as required. Thirty μl of 1.0% solutions of phosphonoformic acid and phosphonoacetic acid respectively was applied twice daily during three days to each of six guinea pigs.
# [4] = target: T1, reverse transcriptase from BaEV (Baboon endogenous virus, UniProt P10272); assay: Cell-free reverse transcriptase inhibition, BaEV; format: biochemical; conditions: template/primer (rA)n.(dT)10, read-out: Percent inhibition
# T1 construct: Reverse transcriptase from various retroviruses have been tested in cell-free assays
# T1 sequence (P10272 659-1335): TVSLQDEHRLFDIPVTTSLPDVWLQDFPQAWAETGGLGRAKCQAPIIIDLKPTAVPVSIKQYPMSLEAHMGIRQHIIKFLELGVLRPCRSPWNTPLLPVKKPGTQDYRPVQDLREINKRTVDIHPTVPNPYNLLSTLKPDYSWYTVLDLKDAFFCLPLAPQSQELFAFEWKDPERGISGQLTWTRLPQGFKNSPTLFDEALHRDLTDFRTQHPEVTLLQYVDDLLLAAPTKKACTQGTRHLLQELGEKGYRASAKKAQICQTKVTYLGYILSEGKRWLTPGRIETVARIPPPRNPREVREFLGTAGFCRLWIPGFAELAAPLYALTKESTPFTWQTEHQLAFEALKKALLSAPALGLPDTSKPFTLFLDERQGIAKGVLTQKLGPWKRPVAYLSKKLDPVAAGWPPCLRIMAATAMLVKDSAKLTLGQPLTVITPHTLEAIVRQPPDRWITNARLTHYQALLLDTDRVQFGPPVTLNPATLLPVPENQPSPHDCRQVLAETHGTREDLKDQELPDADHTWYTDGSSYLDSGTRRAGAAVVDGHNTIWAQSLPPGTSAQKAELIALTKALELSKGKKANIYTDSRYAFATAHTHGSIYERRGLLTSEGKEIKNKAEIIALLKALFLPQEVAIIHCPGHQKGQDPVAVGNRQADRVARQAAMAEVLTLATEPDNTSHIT
# Experimental: as §1, §2
# [5] = target: T2, reverse transcriptase from BLV (Bovine leukemia virus, UniProt P03361); assay: Cell-free reverse transcriptase inhibition, BLV; format: biochemical; conditions: template/primer (rA)n.(dT)10, read-out: Percent inhibition
# T2 construct: Reverse transcriptase from various retroviruses have been tested in cell-free assays; made in house
# T2 sequence (P03361 546-1120): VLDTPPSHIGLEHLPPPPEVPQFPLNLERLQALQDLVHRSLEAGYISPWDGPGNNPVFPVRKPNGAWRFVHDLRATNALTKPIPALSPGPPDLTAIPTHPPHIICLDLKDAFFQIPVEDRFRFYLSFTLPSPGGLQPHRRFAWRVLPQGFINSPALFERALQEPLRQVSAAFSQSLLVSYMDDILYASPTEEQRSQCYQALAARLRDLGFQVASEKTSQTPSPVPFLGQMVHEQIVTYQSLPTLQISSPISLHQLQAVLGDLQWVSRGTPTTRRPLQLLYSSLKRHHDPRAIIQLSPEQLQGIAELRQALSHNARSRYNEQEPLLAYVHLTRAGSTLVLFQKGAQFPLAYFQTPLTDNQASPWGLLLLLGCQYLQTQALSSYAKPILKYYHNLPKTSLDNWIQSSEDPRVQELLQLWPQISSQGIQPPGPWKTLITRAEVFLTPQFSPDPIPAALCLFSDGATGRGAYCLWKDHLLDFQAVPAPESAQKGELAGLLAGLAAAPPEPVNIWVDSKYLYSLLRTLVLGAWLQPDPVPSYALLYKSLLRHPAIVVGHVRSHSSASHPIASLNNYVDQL
# Experimental: as §1, §2
# [6] = target: T3, reverse transcriptase from VV (Maedi visna virus, UniProt P03370); assay: Cell-free reverse transcriptase inhibition, VV; format: biochemical; conditions: template/primer (rA)n.(dT)10, read-out: Percent inhibition
# T3 construct: Reverse transcriptase from various retroviruses have been tested in cell-free assays; made in house
# T3 sequence (P03370 541-1111): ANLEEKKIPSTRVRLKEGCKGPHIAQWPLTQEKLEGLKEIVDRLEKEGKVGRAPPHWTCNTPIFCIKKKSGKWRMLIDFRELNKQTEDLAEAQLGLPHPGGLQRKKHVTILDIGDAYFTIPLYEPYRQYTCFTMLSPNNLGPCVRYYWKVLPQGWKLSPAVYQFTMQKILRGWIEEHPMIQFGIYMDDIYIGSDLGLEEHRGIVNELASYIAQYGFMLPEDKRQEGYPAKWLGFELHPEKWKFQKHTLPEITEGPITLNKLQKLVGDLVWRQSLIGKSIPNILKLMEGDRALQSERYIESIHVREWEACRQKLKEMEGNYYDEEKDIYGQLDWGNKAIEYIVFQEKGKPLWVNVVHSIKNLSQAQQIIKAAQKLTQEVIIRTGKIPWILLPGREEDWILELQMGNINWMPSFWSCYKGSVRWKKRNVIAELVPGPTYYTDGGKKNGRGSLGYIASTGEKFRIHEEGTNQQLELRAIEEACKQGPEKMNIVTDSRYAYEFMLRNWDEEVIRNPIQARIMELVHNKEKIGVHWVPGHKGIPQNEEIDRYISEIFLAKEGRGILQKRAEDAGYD
# Experimental: as §1, §2
# [7] = test system: reverse transcriptase from AMV; assay: Cell-free reverse transcriptase inhibition, AMV; format: biochemical, avian myeloblastosis virus
# Experimental: as §1, §2
# [8] = target: T4, reverse transcriptase from SSV (Woolly monkey sarcoma virus, UniProt P03359); assay: Cell-free reverse transcriptase inhibition, SSV; format: biochemical, simian sarcoma virus; conditions: template/primer (rA)n.(dT)10, read-out: Percent inhibition
# T4 construct: Reverse transcriptase from various retroviruses have been tested in cell-free assays
# T4 sequence (P03359 642-1310): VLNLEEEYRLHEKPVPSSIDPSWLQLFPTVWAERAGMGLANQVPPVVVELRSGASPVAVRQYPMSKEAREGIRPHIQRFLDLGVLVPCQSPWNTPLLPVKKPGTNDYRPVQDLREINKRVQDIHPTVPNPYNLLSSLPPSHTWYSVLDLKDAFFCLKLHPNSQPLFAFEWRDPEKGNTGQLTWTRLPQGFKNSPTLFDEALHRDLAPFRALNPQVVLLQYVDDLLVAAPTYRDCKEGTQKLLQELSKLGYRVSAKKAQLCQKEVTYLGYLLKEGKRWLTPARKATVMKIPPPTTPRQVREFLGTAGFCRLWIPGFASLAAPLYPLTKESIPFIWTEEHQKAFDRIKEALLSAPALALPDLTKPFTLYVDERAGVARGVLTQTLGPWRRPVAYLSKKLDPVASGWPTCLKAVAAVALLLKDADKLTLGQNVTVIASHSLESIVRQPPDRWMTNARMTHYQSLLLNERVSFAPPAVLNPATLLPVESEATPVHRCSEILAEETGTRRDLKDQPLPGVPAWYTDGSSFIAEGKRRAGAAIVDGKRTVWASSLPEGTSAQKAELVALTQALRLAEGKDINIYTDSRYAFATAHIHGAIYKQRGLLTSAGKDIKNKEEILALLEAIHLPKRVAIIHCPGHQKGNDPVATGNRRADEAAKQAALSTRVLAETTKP
# Experimental: as §1, §2
# [9] = design: species or system Cynomolgus monkeys; conditions: cynomolgus monkey, in vivo
# Experimental: Phosphonoformic acid, also denoted PFA and phosphonoacetic acid, also denoted PAA were used in the form of their trisodium and disodium salt, respectively. The following equimolar compositions of the two test compounds were used: […]
# Two adult male Cynomolgus monkeys were treated once daily for 7 days with PFA or PAA in Arlatone cream. Treatment was done both by topical application of 0.2 ml cream on an area of 3×7 cm on the upper part of the arms and by application of 0.2 ml of cream on the penis and the adjacent skin. During application of cream, the animals were lightly anaesthetized with Ketalar®, given intramuscularly. All applications were 0.2 ml each on day 6/3, 7/3, 8/3, 9/3, 10/3, 11/3 and 12/3 1978.
smiles,measurement,setting,value
"O=C(O)CP(=O)(O)O [phosphonoacetic acid, reference compound]",effect on virus multiplication,[1]; SCP cells,does not prevent virus multiplication
same,Morphological changes Day 3,[1]; Visna virus infected cells,+ (10% cell degeneration)
same,Morphological changes Day 5,[1]; Visna virus infected cells,++ (25% cell degeneration)
same,Morphological changes Day 7,[1]; Visna virus infected cells,++++ (100% cell degeneration)
same,Percent inhibition,[2]; 10 μM,0%
same,Percent inhibition,[2]; 100 μM,10%
same,Percent inhibition,[2]; 500 μM,35%
same,skin condition after two weeks,[3],the skin heals after about two weeks but remains hairless
same,skin irritation score,[3]; pH 6.5,2-3 score
same,inhibition at 10 µM,[4]; 10 μM,5%
same,inhibition at 100 µM,[4]; 100 μM,58%
same,inhibition at 500 µM,[4]; 500 μM,71%
same,inhibition at 100 µM,[5]; 100 μM,0%
same,inhibition at 500 µM,[5]; 500 μM,10%
same,inhibition at 100 µM,[6]; 100 μM,25%
same,inhibition at 500 µM,[6]; 500 μM,3%
same,Percent inhibition,"[7]; 10 μM, endogenous template",0%
same,Percent inhibition,"[7]; 10 μM, purified enzyme, (rA)n.(dT)10",0%
same,Percent inhibition,"[7]; 10 μM, template/primer (rA)n.(dT)10",0%
same,Percent inhibition,"[7]; 100 μM, endogenous template",-2%
same,Percent inhibition,"[7]; 100 μM, purified enzyme, (rA)n.(dT)10",0%
same,Percent inhibition,"[7]; 100 μM, template/primer (rA)n.(dT)10",-34%
same,Percent inhibition,"[7]; 500 μM, endogenous template",-3%
same,Percent inhibition,"[7]; 500 μM, purified enzyme, (rA)n.(dT)10",19%
same,Percent inhibition,"[7]; 500 μM, template/primer (rA)n.(dT)10",-86%
same,inhibition at 10 µM,[8]; 10 μM,0%
same,inhibition at 100 µM,[8]; 100 μM,44%
same,inhibition at 500 µM,[8]; 500 μM,58%
same,"Result (skin irritation), area of application penis",[9],Glans penis and adjacent skin areas irritated 9/3-12/3 Adjacent skin areas also showed symptoms 23/3
